Measurements as given in paper PMC8306139, “A Novel Dialkylamino-Functionalized Chalcone, DML6, Inhibits Cervical Cancer Cell Proliferation, In Vitro, via Induction of Oxidative Stress, Intrinsic Apoptosis and Mitotic Catastrophe” (Molecules, 2021).

Assays:
Type in all cases: cell-based
MDA-MB-231 = assay: MTT assay, MDA-MB-231; conditions: Homo sapiens, MDA-MB-231, 72 h, read-out: IC50 ± SD Breast MDA-MB-231
Method: The concentration of the tested compounds that produced a 50% inhibition of cell growth (IC50) was determined.
A panel of cancer cell lines, including cervical (OV2008 and HeLa), breast (MDA-MB-231), lung (A549) and colon (LOVO), prostate (DU145), human embryonic kidney cells (HEK293), human colon fibroblast cells (CRL1459), and Chinese hamster ovary cells (CHO), were grown as adherent monolayers in flasks containing Dulbecco’s modified Eagle medium (DMEM), supplemented with 10% fetal bovine serum (FBS) and 1% penicillin and streptomycin, in a humidified incubator with 5% CO2 at 37 °C.
The cells were seeded evenly (180 μL/well) in 96-well plates, at a density of 3000–5000 cells/well and incubated with serial dilutions of the compounds ranging from 0.1 to 100 μM. The MTT dye (4 mg/ml) was added after 72 h of incubation and incubated with the cells for an additional 4 h at 37 °C, allowing the viable cells to biotransform the yellow-colored MTT into dark-blue formazan crystals. Following incubation, the medium was aspirated, and the formazan crystals were dissolved by adding 100 μL of DMSO to each well. Cytation™ 5 and Cytation™ 7 multi-mode detector (Bio Tek Instruments, Winooski, VT, USA) was used to determine the absorbance readings at a wavelength of 570 nm. The IC50 values were determined based on 3 separate experiments, with each experiment carried out in triplicate.

OV2008 cells = assay: Nuclear staining with Hoechst dye
Method: Nuclear fragmentation and chromatin condensation were detected using the Hoechst 33258 DNA dye as previously described. OV2008 cells were seeded at a density of 250,000 cells/mL in 6-well plates and incubated overnight at 37 °C. The next day, the cells were incubated with the vehicle (DMEM media with 10% FBS and 1% penicillin and streptomycin), 5 or 20 μM of DML6 and further incubated overnight at 37 °C. The cells were fixed and stained with the Hoechst 33258 DNA dye for at least 30 min. The stained nucleus fluorescence was detected using an EVOS digital microscope at wavelengths of 460–490 nm.

[1] = system: caspase-3/7 in OV2008 cells; assay: Time-dependent apoptosis induction (Caspase-3/7 Green reagent)
Method: Cell Event™ Caspase-3/7 Green Detection Reagent from (Catalog # C10423, Life Technologies, Carlsbad, CA, USA), which is a novel fluorogenic substrate for activated caspase-3/7 that is compatible with living cells, was used to determine apoptosis activation in real-time in OV2008 cells incubated with DML6. Briefly, OV2008 cells were seeded in 96-well plates at a density of 1 × 10^3 cell/well. Twenty-four hours later, the cells were incubated with the vehicle (DMEM media with 10% FBS and 1% penicillin and streptomycin), 5 or 20 µM of DML6 for 72 h. Five micromolar of the apoptosis-detecting reagents were added to the cells immediately after DML6 and were incubated for up to 72 h at 37 °C. Fluorescence was determined every 24h using a live cell imaging system (IncuCyte Zoom, Essen Bioscience, Ann Arbor, MI, USA, using an absorption/emission maximum of ~502/530 nm.

Bax = assay: Western blot, Bax; conditions: OV2008, 5 and 20 μM, 24 h, vs vehicle
Method: The OV2008 cells were lysed to obtain total cellular protein fractions using Mammalian Protein Extraction Reagent (Catalog # 78501, M-PER™, Thermo Fisher Scientific, Waltham, MA, USA). The cells were seeded in […] at a density of 1 × 10^6 and incubated with 5 or 20 µM of DML6 or 1 µM of doxorubicin (Catalog # T1-2-, TargetMol, Boston, MA, USA) (a positive control) for 24 h. The following day, the cells were washed with ice-cold PBS, scraped using a cell scrapper and collected in Eppendorf tubes. The tubes were centrifuged at 1500 RPM at 4 °C for 5 min. The solution was discarded and replaced with 70 µL of the cell lysis buffer (M-PER reagent, 100 mM Sodium Orthovanadate (NaOV) at a final concentration of 2.5 mM) and a 100X protease inhibitor cocktail (Catalog # P8340, Sigma-Aldrich, St. Louis, MO, USA, final concentration of 1X, containing of aprotinin, bestatin, E-64, leupeptin and pepstatin). Thirty minutes later, the resulting solution was centrifuged at 10,000 RPM at 4 °C for 5 min and the supernatant was collected. The protein concentration of the cell extracts was determined using the bicinchoninic acid (BCA) (Catalog # 786-570, G-Biosciences, Saint Louis, MO, USA) quantification assay. […] Finally, the amount of protein in each blot was quantified using the Image J software (NIH, Bethesda, MD, USA). All data were calculated as a ratio to β-actin.

CN(C)c1ccc(/C=C/C(=O)c2ccc(Cl)cc2Cl)cc1 [DML6, (E)-1-[2,4-dichlorophenyl]-3-(4-(dimethylamino)phenyl)prop-2-en-1-one]
IC50 (MDA-MB-231): 91.9 ± 11.5 µM
nuclear morphology (OV2008 cells; 5 μM, 24 h): increased the number of cells with condensed, fragmented nuclei
nuclear morphology (OV2008 cells; 20 µM): decondensed, multiple micronuclei and some single, highly condensed nuclei
percentage of apoptotic nuclei (OV2008 cells; 5 and 20 μM, vs vehicle): significantly higher
incubation time required to induce apoptosis ([1]; 5 µM): ≈ 48 h
incubation time required to induce apoptosis ([1]; 20 µM): < 24 h
apoptosis induction by activating caspase-3 and caspase-7 ([1]; 5 or 20 μM, time-dependent, vs vehicle): significantly induced apoptosis
expression of the pro-apoptotic protein Bax (Bax): significantly increased the expression
